In patent US11446319B2, “Composition containing flavonoid-cyclodextrin clathrate compound” (TAIYO KAGAKU CO., LTD., priority 2018, dated 2022):

System: human dermal fibroblasts
Type: cell-based
Conditions: 24 h
Method: Specifically, human dermal fibroblasts (manufactured by PromoCell) were subcultured in a 24-well plate using a medium for cells in a proportion of 3×10^4 cells/well. […] After 24 hours, the viability of the cells was analyzed.
The viability of the cells was analyzed as follows. The cells were incubated at 37° C. and 5% CO2 for 1 hour in the presence of Neutral Red (pigment) (The live cells incorporating Neutral Red, thereby making the cells distinguishable from dead cells or damaged cells, and quantifiable). Next, 50% ethanol and a solution of 0.05 M NaH2PO4 were added to the cells to thereby extract out the pigment from the cells. Thereafter, the absorbance of the cells was measured with a spectrophotometer at 540 nm, and compared to that of the cells unexposed to the light, and shown as viability (%)=(analytical value at 540 nm of the photo-irradiated cells×100/analytical value at 540 nm of the cells not irradiated with light) in Table 26.
The evaluation was made in the same manner as in Example 231 except that the composition used during the incubation for 24 hours was changed to have the components as listed in Tables 26 to 29.

For C[C@H](O)[C@H](O)[C@@H](O)[C@@H](O)C=O [rhamnose], the viability was “about 5%”.
